From the OPERA property sets (Mansouri et al. 2018) come the findings set out here.

SMILES strings stand for the structures.

The logP is the decadic logarithm of the partition coefficient of the neutral form, usually between octanol and water. For `Cc1cncc(C#N)n1`, the logP turned out to be 0.44. On to `Cc1nc(C#N)c(C#N)nc1Cl`, for which the logP amounted to 1.29. Take `CCCCc1nccnc1C`: the logP came out at 2.1.

Consider `Cc1nccnc1OC(C)C`, for which the logP was determined as 2.24. Compound `Cc1cncc(C(N)=O)n1` showed a logP of -0.13. To `CCCc1nccnc1C` belongs 1.57; to `COc1cnc(OC)cn1`, 1.14; to `COc1cncc(NC(C)=O)n1`, 0.82. Compound `COC(=O)c1cncc(C)n1` displayed a logP of 0.1. The same measure for `COc1cnc(Cl)cn1`: 1.52.

`CCOC(=O)c1cncc(C)n1`: the logP was 0.51.

As to `COc1nccnc1C`, the lipophilicity (logP) is 1.24. To `COc1ccnc(C#N)n1` belongs 0.86; to `COc1cncc(N(C)C)n1`, 1.99; to `Cc1cnc(C)c(Cl)n1`, 1.5. For the compound `Cc1cnc(C)c(C)n1`, the logP worked out at 0.95. To `CCc1nccnc1CC` belongs 1.51.

For the compound `Cc1cncc(N(C)C)n1`, the logP was found to be 1.57. As to `CCc1ncc(C)nc1CC`, the logP came out at 1.95. To `COC(=O)c1ccc(Br)o1` belongs 1.84.

The compound `CC(=O)Nc1cnc(Cl)cn1` gave a logP of 0.56.

In turn, `COC(=O)c1cncc(OC)n1` showed a logP of 0.69. In turn, `CN(C)c1cncc(C#N)n1` returned a log partition coefficient (logP) of 1.12. Take `CCc1nc(C#N)c(C#N)nc1Cl`: the log partition coefficient (logP) turned out to be 1.79.

In turn, `CN(C)c1cnc(Cl)cn1` showed a logP of 1.7. `COC(=O)c1nccnc1C(=O)OC` gave a logP of -0.02. The same measure for `COc1cncc(N)n1`: 0.73; for `COC(=O)c1cncc(N(C)C)n1`: 0.9; for `COc1cncc(C#N)n1`: 0.95. The same measure for `CCOc1cnc(Cl)cn1`: 1.99; for `Cc1cncc(N)n1`: 0.35; for `CSc1nccnc1C`: 1.81. To `CCOc1cncc(C(N)=O)n1` belongs 0.61; to `Cc1nc(C)c(C)nc1C`, 1.28; to `CCc1nccnc1C`, 1.07. Consider `CCOc1cncc(OC)n1`, for which the log partition coefficient (logP) is 1.98. `COC(=O)c1cnc(C)cn1` showed a logP of 0.17.

As for `CCOC(=O)c1cncc(N(C)C)n1`, the log partition coefficient (logP) worked out at 1.24. The same measure for `CCOc1cncc(OCC)n1`: 2.55; for `COc1cnc(N(C)C)cn1`: 1.65; for `N#Cc1nccnc1C#N`: 0.38. To `Cc1cnc(Cl)cn1` belongs 1.08; to `COc1cncc(OC)n1`, 1.58. To `CC(=O)Nc1cncc(C)n1` belongs 0.38; to `COc1cncc(C(N)=O)n1`, 0.13; to `Cc1cnc(C#N)cn1`, 0.26. As for `COc1cnc(N)cn1`, the logP was 0.63. In turn, `CCOC(=O)c1cncc(OC)n1` yielded a logP of 1.2.

`CCOC(=O)c1nccnc1C(=O)OCC`: the log partition coefficient (logP) turned out to be 0.65. `Cc1nccnc1C`: the log partition coefficient (logP) was found to be 0.54. As to `CN(C)c1cncc(C(N)=O)n1`, the logP came to 0.38. With `COc1cncc(C)n1`, the lipophilicity (logP) was found to be 1.29.

With `Clc1cnc(Cl)cn1`, the log partition coefficient (logP) stood at 1.58. On to `Cc1cnc(C(N)=O)cn1`, for which the lipophilicity (logP) was -0.25. On to `Cc1cncc(C)n1`, for which the lipophilicity (logP) was found to be 0.54. To `CCOC(=O)c1cnc(C)cn1` belongs 0.61; to `CCCCc1nc(C#N)c(C#N)nc1Cl`, 2.89.

`Nc1cncc(N)n1` registered a logP of -0.45.
